Read-outs that look alike come from different tables or passages of the source.
Assays:
[1] = system: rat isolated blood vessel, thoracic aorta ring (ラット摘出血管、大動脈リング); experiment: Vasorelaxation of phenylephrine-precontracted isolated rat thoracic aorta rings (Example 1, screening); type: cell-based; conditions: 100 μM; 1 μM phenylephrine precontraction; endothelium intact
[2] = system: eNOS serine 1177 residue (eNOSセリン1177残基); experiment: Phosphorylation of eNOS serine 1177 in isolated rat thoracic aorta rings (Examples 5 and 6); type: cell-based; conditions: 5 min; for enhancement of eNOS serine 1177 phosphorylation: without wortmannin
[3] = system: Akt serine 473 residue (Aktセリン473残基); experiment: Phosphorylation of Akt serine 473 in isolated rat thoracic aorta rings (Examples 5 and 6); type: cell-based; conditions: 5 min; for enhancement of Akt serine 473 phosphorylation: without wortmannin
aorta ring (大動脈リング) [4] = experiment: Involvement of PI3K in relaxation of isolated rat aorta rings, wortmannin pretreatment (Example 4); type: cell-based; conditions: for relaxation rate: wortmannin (WO) 200 nM, 15 min pretreatment
aorta ring (大動脈リング) [5] = experiment: Endothelium-derived NO mechanism study in isolated rat aorta rings: endothelium removal and inhibitors (Example 3); type: cell-based; conditions: for relaxation of phenylephrine contraction with C-PTIO: NO scavenger C-PTIO 300 μM; for relaxation of phenylephrine contraction with C-PTIO / relaxation of phenylephrine contraction with L-NAME / relaxation of phenylephrine contraction with indomethacin / relaxation of phenylephrine contraction with ODQ: 15 min pretreatment; for relaxation of phenylephrine contraction with L-NAME: NOS inhibitor L-NAME 100 μM; for vasorelaxing action after endothelium removal: aorta ring with endothelium mechanically removed; for relaxation of phenylephrine contraction with indomethacin: cyclooxygenase inhibitor indomethacin 10 μM; for relaxation of phenylephrine contraction with ODQ: soluble guanylate cyclase inhibitor ODQ 1 μM
[6] = system: rat isolated blood vessel (ラット摘出血管); experiment: EC50 of vasorelaxation in phenylephrine-precontracted isolated rat aorta rings (Example 2); type: cell-based
[7] = Oral absorption in fasted male ICR mice, plasma concentration by LC/MS (Example 7); type: in vivo; conditions: mouse (ICR male, fasted), 100 mg/kg oral
[8] = system: phenylephrine-induced hypertensive model rat (フェニレフリン昇圧モデルラット); experiment: Hypotensive action in phenylephrine-induced hypertensive model rats (Example 8); type: in vivo; conditions: Wistar male rat; 40 mg/kg intravenous; phenylephrine 75 μg/kg/min
[9] = 100〜500 μM, wortmannin (WO) 200 nM, 20 min pretreatment
[10] = concentration giving 50% relaxation of phenylephrine contraction, 1〜100 μM, logistic method, read-out: EC50
[11] = 100 μM or 300 μM, wortmannin (WO) pretreatment

OC[C@H]1OC(O)[C@H](O)[C@@H](O)[C@@H]1O (stereo partly shown) [グルコース]
vasodilating action (relaxation of phenylephrine contraction) [1]: 血管拡張作用が見出せなかった

CC1(CO)N=C(NCCC[C@H](N)C(=O)O)NC1=O (stereo partly shown) [I−2, Nδ−(5−メチル−5−ヒドロキシメチル−4−イミダゾロン−2−イル)−L−オルニチン]
enhancement of eNOS serine 1177 phosphorylation ([2]; 100〜500 μM): 濃度依存的にeNOSセリン1177残基のリン酸化亢進作用を示した | eNOS serine 1177 phosphorylation after wortmannin pretreatment [2, 9]: 完全に抑制された | enhancement of Akt serine 473 phosphorylation ([3]; 100〜500 μM): Aktセリン473残基のリン酸化亢進作用を示した | Akt serine 473 phosphorylation after wortmannin pretreatment [3, 9]: 完全に抑制され

N=C(N)NCCC[C@H](NCC(=O)[C@@H](O)[C@H](O)[C@H](O)CO)C(=O)O [フラクトシルアルギニン]
vasodilating action (relaxation of phenylephrine contraction) [1]: 血管拡張作用が見出せなかった

N=C(N)NCCC[C@H](N)C(=O)O [L−アルギニン]
vasodilating action (relaxation of phenylephrine contraction) [1]: 血管拡張作用が見出せなかった

N[C@@H](CCCNC1=NC(CCO)C(=O)N1)C(=O)O (stereo partly shown) [I−3, Nδ−[5−ヒドロ−5−(2−ヒドロキシエチル)−4−イミダゾロン−2−イル]−L−オルニチン]
relaxation rate (aorta ring (大動脈リング) [4]; 100 μ (so in the source)): 3±3% | inhibition at 100 µM (aorta ring (大動脈リング) [4]; Rattus norvegicus, 100 μ (so in the source), untreated control (no wortmannin), read-out: relaxation rate): 62 ± 8% | relaxation of phenylephrine contraction with C-PTIO (aorta ring (大動脈リング) [5]): 血管の弛緩が大幅に減弱した | relaxation of phenylephrine contraction with L-NAME (aorta ring (大動脈リング) [5]): 血管の弛緩がほとんど見られなかった | vasorelaxing action after endothelium removal (aorta ring (大動脈リング) [5]): 完全に消失した | relaxation of phenylephrine contraction with indomethacin (aorta ring (大動脈リング) [5]): 血管の弛緩に全く影響を与えなかった | relaxation of phenylephrine contraction with ODQ (aorta ring (大動脈リング) [5]): 血管の弛緩が大幅に減弱した | enhancement of eNOS serine 1177 phosphorylation ([2]; 100〜500 μM): 濃度依存的にeNOSセリン1177残基のリン酸化亢進作用を示した | eNOS serine 1177 phosphorylation after wortmannin pretreatment [2, 9]: 完全に抑制された | EC50 [6, 10]: 71 µM | enhancement of Akt serine 473 phosphorylation ([3]; 100〜500 μM): Aktセリン473残基のリン酸化亢進作用を示した | Akt serine 473 phosphorylation after wortmannin pretreatment [3, 9]: 完全に抑制され

CC1N=C(NCCC[C@H](N)C(=O)O)NC1=O (stereo partly shown) [I−1, Nδ−(5−ヒドロ−5−メチル−4−イミダゾロン−2−イル)−L−オルニチン]
relaxation rate (aorta ring (大動脈リング) [4]; 50 μM): 10±3% | inhibition at 50 µM (aorta ring (大動脈リング) [4]; Rattus norvegicus, read-out: relaxation rate): 93 ± 3% | Cmax at 0.25 h ([7]; at 15 min after dosing, read-out: maximum plasma concentration): 174 µM | Tmax ([7]; read-out: time of maximum plasma concentration (converted)): 15 min | relaxation of phenylephrine contraction with C-PTIO (aorta ring (大動脈リング) [5]): 血管の弛緩が大幅に減弱した | relaxation of phenylephrine contraction with L-NAME (aorta ring (大動脈リング) [5]): 血管の弛緩がほとんど見られなかった | vasorelaxing action after endothelium removal (aorta ring (大動脈リング) [5]): 完全に消失した | relaxation of phenylephrine contraction with indomethacin (aorta ring (大動脈リング) [5]): 血管の弛緩に全く影響を与えなかった | relaxation of phenylephrine contraction with ODQ (aorta ring (大動脈リング) [5]): 血管の弛緩が大幅に減弱した | EC50 [6]: 13 µM | maximum decrease of mean blood pressure [8]: 12.7 mmHg | time from start of administration to onset of hypotensive action [8]: ~1 min

N[C@@H](CCCNC1=NC(CC(O)C(O)CO)C(=O)N1)C(=O)O (stereo partly shown) [I−7, Nδ−[5−ヒドロ−5−(2,3,4−トリヒドロキシブチル)−4−イミダゾロン−2−イル]−L−オルニチン]
relaxation rate (aorta ring (大動脈リング) [4]; 50 μM): 5±2% | inhibition at 50 µM (aorta ring (大動脈リング) [4]; Rattus norvegicus, 50 μM, untreated control (no wortmannin), read-out: relaxation rate): 90 ± 5% | relaxation of phenylephrine contraction with C-PTIO (aorta ring (大動脈リング) [5]): 血管の弛緩が大幅に減弱した | relaxation of phenylephrine contraction with L-NAME (aorta ring (大動脈リング) [5]): 血管の弛緩がほとんど見られなかった | vasorelaxing action after endothelium removal (aorta ring (大動脈リング) [5]): 完全に消失した | relaxation of phenylephrine contraction with indomethacin (aorta ring (大動脈リング) [5]): 血管の弛緩に全く影響を与えなかった | relaxation of phenylephrine contraction with ODQ (aorta ring (大動脈リング) [5]): 血管の弛緩が大幅に減弱した | eNOS serine 1177 phosphorylation after wortmannin pretreatment [2, 11]: 完全に抑制された | enhancement of eNOS serine 1177 phosphorylation ([2]; 300 μM): eNOSセリン1177残基のリン酸化亢進作用を示した | EC50 [6, 10]: 25 µM | Akt serine 473 phosphorylation after wortmannin pretreatment [3, 11]: 完全に抑制され | enhancement of Akt serine 473 phosphorylation ([3]; 300 μM): Aktセリン473残基のリン酸化亢進作用を示した
